Reference: US5780008A, “Polyhdric phenol compounds” (Mallinckrodt Medical, Inc., priority 1997, dated 1998)
Blank lines part the entries; values can stand above or below the compound they belong to.

Tests used:
YAK1 mice lymphoma cells = experiment: binding of 3-125I-phloretin to YAK1 lymphoma cancer cells
Experimental: (§1) In order to be able to compare the binding to cancer cells with the binding to normal cells, the following experiments are carried out. Binding to certain cancer cells, viz. YAK1 mice lymphoma cells (10^6 cells/ml incubation medium) is compared with binding to erythrocytes of a young healthy person (10^6 cells/ml incubation medium), because erythocytes are typical reference cells for glucose transport studies.
(§2) The incubation media are respectively:
(§3) RPMI buffer pH=8; 11 mM in glucose, and
(§4) RPMI buffer/0.9% NaCl : 1/1.
(§5) Each 1 ml essay contains 5% of foetal calf serum and is spiked (50 μl) with 3-^125 I-phloretin (initial activity is measured). After 15 min incubation at 37° C., the suspension is centrifuged and the precipitate is resuspended with 1 ml cold buffer which is discarded after a second centrifugation. The final radioactive precipitate is suspended in 1 ml water and measured. The bound radioactivity is related to the initial activity.

erythrocytes = experiment: binding of 3-125I-phloretin to erythrocytes; parameters: species or system human
Experimental: as §1, §2, §3, §4, §5
Saturation binding of 3-^125 I-phloretin to 5.10^6 erythrocytes is performed in RPMI-buffer and Tris-buffer of pH 8. The binding experiments are performed at pH 8, because this is the pH of the RPMI buffer needed for optimum YAK1 cells growth. Incubation for 15 min at 37° C. Inhibition is studied by pre-incubation (15 min, 37° C.) of the erythrocytes in buffer containing 2.10^-4 M 3-Br-phloretin. After centrifugation, the Br-phloretin--containing solution is discarded and the precipitate washed with ice-cooled buffer. After a second centrifugation, the supernatant is discarded and the cells are resuspended in buffer containing 3-^125 I-phloretin. After incubation for 15 min at 37° C., the same above procedure is applied.
Phloretin is a weak acid (pK is approx. 7.3); only the uncharged (non-dissociated) form inhibits red cell glucose transport (Jennings et al., see above). Therefore the values mentioned hereinafter are corrected for dissociation.

hexokinase = experiment: hexokinase-model: inhibition of hexokinase catalysed 6-phosphorilation of glucose; type: biochemical
From the text: The "hexokinase-model" is used as a model system for the glucose-transport proteins, which play a paramount role in the glucose metabolism.

[1] = binding in human whole blood (RB/plasma distribution, reversibility); type: in vitro ADME
Experimental: Jennings et al. [J. Gen. Phys., […], 67, 381]have reported the binding of phloretin to whole red blood cells. Their results let to assume that phloretin should enter the erythrocytes and bind to haemoglobine. This should mean that a phloretin-based radiotracer should not be suitable for in vivo use. Therefore the reversibility of the binding is checked. For this purpose 3-^125 I-phloretin is added to whole heparinised blood. This is centrifuged, yielding serum S-*I and red blood portion RB-*I. S-*I and non-radioactive RB (1/1) and respectively non-radioactive S and RB-*I (1/1) are incubated at 37° C. for 15 min and centrifuged. The radioactivity of all the weighed aliquots is measured in a well NaI(Tl) detector.

[2] = in vivo distribution studies in rats
Experimental: The in vivo distribution in rats is determined by injecting approx. 10μCi of the compound to be evaluated into the tail vein of the test animals. The test animals are sacrificed at appropriate time intervals after injection and the radioactivity of the organs of interest is measured by gamma scintillation counting.

bound/free value of 3-125I-phloretin after pre-incubation with inhibitor (erythrocytes; pre-incubation with 2×10^-4 M, 15 min 37° C., blank 0.193, average of 5 experiments): 0.081
inhibition of 3-125I-phloretin binding to erythrocytes (erythrocytes; pre-incubation with 2×10^-4 M, compared with blank): 58%
Structure (SMILES): O=C(CCc1ccc(O)c(Br)c1)c1c(O)cc(O)cc1O [3-Br-phloretin, 3-bromophloretin]
decreased binding of 3-125I-phloretin to YAK1 cells (YAK1 mice lymphoma cells; co-incubation of 3-Br-phloretin, 15 min): 30%

inhibition potency for hexokinase relative to the original phloretin (hexokinase; versus phloretin): approx. 2 times
Structure (SMILES): O=C(CCc1ccc(O)c(I)c1)c1c(O)cc(O)cc1O [3-I-phloretin]

high affinity binding in the presence of serum albumine (erythrocytes; at equilibrium): remains unchanged
influence of glucose on binding (erythrocytes; presence of 3.10^-3 -5.10^-3 M glucose): hardly influences
Bmax (erythrocytes; saturation binding 0.1 to 1.2 10^-10 M, Scatchard plot, pH 8): 4.7×10^-15 mol/10^6 erythrocytes
nature of binding to plasma-proteins and RB [1]: bound reversibly
uptake in the heart and muscle in the presence of Br-phloretin (C.A.) ([2]; C.A. versus N.C.A.): decreased uptake
uptake in the lungs (lung versus blood) ([2]; approx. 10μCi into the tail vein): high uptake
Structure (SMILES): O=C(CCc1ccc(O)c([125I])c1)c1c(O)cc(O)cc1O [3-^125 I-phloretin]
increase of uptake to YAK1 lymphoma cancer cells as compared to erythrocytes (YAK1 mice lymphoma cells; YAK1 cells versus erythrocytes): > 2 factor

type of inhibition of hexokinase activity (hexokinase; from Lineweaver-Burck plots, with respect to glucose): competitive
Structure (SMILES): O=C(CCc1ccc(O)cc1)c1c(O)cc(O)cc1O [phloretin, reference compound]
